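Method: 48-hour compound exposure of cells in 96-well plates, five concentrations, linear interpolation of endpoints. TGI: total growth inhibition.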
Columns and labels:
Assay in all cases: growth of human tumour cells (NCI), 48 h
SN12C renal = system: SN12C renal
SNB-19 CNS = system: SNB-19 CNS
MALME-3M melanoma = system: MALME-3M melanoma
KM20L2 colon = system: KM20L2 colon
HCT-116 colon = system: HCT-116 colon
OVCAR-5 ovarian = system: OVCAR-5 ovarian
EKVX NSCLC = system: EKVX NSCLC
SK-MEL-28 melanoma = system: SK-MEL-28 melanoma
LXFL 529 NSCLC = system: LXFL 529 NSCLC
COLO 205 colon = system: COLO 205 colon
NCI-H226 lung = system: NCI-H226 lung
HL-60(TB) leukemia = system: HL-60(TB) leukemia
SR leukemia = system: SR leukemia
OVCAR-8 ovarian = system: OVCAR-8 ovarian
SF-295 CNS = system: SF-295 CNS
DLD-1 colon = system: DLD-1 colon
HCT-15 colon = system: HCT-15 colon
UACC-257 melanoma = system: UACC-257 melanoma
SNB-75 CNS = system: SNB-75 CNS
NCI-H460 lung = system: NCI-H460 lung
OVCAR-3 ovarian = system: OVCAR-3 ovarian
KM12 colon = system: KM12 colon
A549 NSCLC = system: A549 NSCLC
NCI-H522 lung = system: NCI-H522 lung
M19-MEL melanoma = system: M19-MEL melanoma
SK-MEL-2 melanoma = system: SK-MEL-2 melanoma
UO-31 renal = system: UO-31 renal
LOX IMVI melanoma = system: LOX IMVI melanoma
HOP-92 NSCLC = system: HOP-92 NSCLC
HCC-2998 colon = system: HCC-2998 colon
UACC-62 melanoma = system: UACC-62 melanoma
DMS 114 small cell lung = system: DMS 114 small cell lung
HT29 colon = system: HT29 colon
IGROV1 ovarian = system: IGROV1 ovarian
K-562 leukemia = system: K-562 leukemia
786-0 renal = system: 786-0 renal
A498 renal = system: A498 renal
U251 CNS = system: U251 CNS
MOLT-4 leukemia = system: MOLT-4 leukemia
CAKI-1 renal = system: CAKI-1 renal
ACHN renal = system: ACHN renal
PC-3 prostate = system: PC-3 prostate
RXF 393 renal = system: RXF 393 renal
T-47D breast = system: T-47D breast
SF-539 CNS = system: SF-539 CNS
OVCAR-4 ovarian = system: OVCAR-4 ovarian
DU-145 prostate = system: DU-145 prostate
NCI-H23 lung = system: NCI-H23 lung
NCI/ADR-RES ovarian = system: NCI/ADR-RES ovarian
MDA-MB-231 breast = system: MDA-MB-231 breast
SW-620 colon = system: SW-620 colon
MCF7 breast = system: MCF7 breast
MDA-MB-435 = system: MDA-MB-435
CCRF-CEM leukemia = system: CCRF-CEM leukemia
HS 578T breast = system: HS 578T breast
BT-549 breast = system: BT-549 breast
M14 melanoma = system: M14 melanoma
RPMI-8226 leukemia = system: RPMI-8226 leukemia
SF-268 CNS = system: SF-268 CNS
SK-OV-3 ovarian = system: SK-OV-3 ovarian
HOP-62 NSCLC = system: HOP-62 NSCLC
TK-10 renal = system: TK-10 renal
SK-MEL-5 melanoma = system: SK-MEL-5 melanoma
MDA-N = system: MDA-N
SNB-78 CNS = system: SNB-78 CNS

Measured: TGI

CC(=O)[O-].[O-]c1c(Cl)cc(Cl)cc1/C=N/Nc1ccccn1.[Zn+2]
0.707 µM: OVCAR-3 ovarian
0.581 µM: MOLT-4 leukemia
0.675 µM: SR leukemia
20.6 µM: NCI-H522 lung
5.41 µM: SF-295 CNS
1.98 µM: SK-MEL-2 melanoma
6.43 µM: OVCAR-5 ovarian
> 100 µM: SN12C renal | SNB-19 CNS | MALME-3M melanoma | KM20L2 colon | HCT-116 colon | SK-MEL-28 melanoma | LXFL 529 NSCLC | COLO 205 colon | NCI-H226 lung | DLD-1 colon | HCT-15 colon | UACC-257 melanoma | SNB-75 CNS | NCI-H460 lung | KM12 colon | A549 NSCLC | M19-MEL melanoma | UO-31 renal | LOX IMVI melanoma | HCC-2998 colon | HT29 colon | IGROV1 ovarian | K-562 leukemia | 786-0 renal | A498 renal | U251 CNS
0.605 µM: DMS 114 small cell lung
9.01 µM: EKVX NSCLC
0.803 µM: HOP-92 NSCLC
0.837 µM: OVCAR-8 ovarian
0.736 µM: HL-60(TB) leukemia
2.43 µM: UACC-62 melanoma

CC1=NN(C(=O)c2ccncc2)C(=O)C1N=Nc1ccc2ccccc2c1 (stereo unspecified)
> 20.6 µM: HL-60(TB) leukemia
> 38.1 µM: MOLT-4 leukemia
> 100 µM: CAKI-1 renal | SN12C renal | SNB-19 CNS | MALME-3M melanoma | HCT-116 colon | OVCAR-5 ovarian | ACHN renal | EKVX NSCLC | SK-MEL-28 melanoma | PC-3 prostate | RXF 393 renal | T-47D breast | SF-539 CNS | OVCAR-4 ovarian | DU-145 prostate | COLO 205 colon | NCI-H226 lung | OVCAR-8 ovarian | SF-295 CNS | NCI-H23 lung | NCI/ADR-RES ovarian | HCT-15 colon | MDA-MB-231 breast | UACC-257 melanoma | SW-620 colon | MCF7 breast | CCRF-CEM leukemia | SNB-75 CNS | NCI-H460 lung | OVCAR-3 ovarian | HS 578T breast | KM12 colon | A549 NSCLC | BT-549 breast | NCI-H522 lung | UO-31 renal | LOX IMVI melanoma | RPMI-8226 leukemia | SF-268 CNS | HOP-92 NSCLC | UACC-62 melanoma | SK-OV-3 ovarian | HT29 colon | HOP-62 NSCLC | TK-10 renal | SK-MEL-5 melanoma | IGROV1 ovarian | 786-0 renal | A498 renal | U251 CNS
> 96.2 µM: M14 melanoma
> 31.7 µM: SR leukemia
15.2 µM: MDA-MB-435 | HCC-2998 colon
> 95.2 µM: SK-MEL-2 melanoma
> 70.7 µM: K-562 leukemia
10.2 µM: MDA-N

O=C(CCOS(=O)(=O)CF)N1CCN(C(=O)CCOS(=O)(=O)CF)CC1
> 90.1 µM: NCI-H522 lung
> 46.4 µM: SF-295 CNS | RPMI-8226 leukemia
> 88.7 µM: ACHN renal
> 56.7 µM: SNB-75 CNS
> 82.5 µM: SK-OV-3 ovarian
> 100 µM: CAKI-1 renal | SN12C renal | SNB-19 CNS | MALME-3M melanoma | HCT-116 colon | OVCAR-5 ovarian | EKVX NSCLC | SK-MEL-28 melanoma | PC-3 prostate | RXF 393 renal | T-47D breast | SF-539 CNS | OVCAR-4 ovarian | DU-145 prostate | COLO 205 colon | NCI-H226 lung | SR leukemia | OVCAR-8 ovarian | NCI-H23 lung | NCI/ADR-RES ovarian | HCT-15 colon | MDA-MB-231 breast | UACC-257 melanoma | SW-620 colon | MCF7 breast | MDA-MB-435 | NCI-H460 lung | OVCAR-3 ovarian | HS 578T breast | KM12 colon | A549 NSCLC | BT-549 breast | SK-MEL-2 melanoma | UO-31 renal | LOX IMVI melanoma | M14 melanoma | SF-268 CNS | HOP-92 NSCLC | HCC-2998 colon | UACC-62 melanoma | HT29 colon | HOP-62 NSCLC | TK-10 renal | SK-MEL-5 melanoma | IGROV1 ovarian | K-562 leukemia | 786-0 renal | A498 renal | U251 CNS | MDA-N
> 87.9 µM: CCRF-CEM leukemia
36.3 µM: MOLT-4 leukemia
29.6 µM: HL-60(TB) leukemia

CCO[C@@H]1OC(=O)[C@@](C)(C(C)=O)[C@@H]1C
70.2 µM: RXF 393 renal
56.6 µM: HOP-62 NSCLC
49.5 µM: CCRF-CEM leukemia
61.1 µM: MOLT-4 leukemia
53.3 µM: UACC-62 melanoma
31.4 µM: OVCAR-3 ovarian
84.9 µM: SNB-78 CNS
78.6 µM: HL-60(TB) leukemia
68.9 µM: DMS 114 small cell lung
34.6 µM: HT29 colon
44.1 µM: SF-268 CNS
29.9 µM: SK-MEL-28 melanoma
52 µM: SK-MEL-2 melanoma
78.9 µM: UACC-257 melanoma
> 100 µM: KM20L2 colon | OVCAR-5 ovarian | ACHN renal | OVCAR-4 ovarian | COLO 205 colon | SR leukemia | NCI-H460 lung | KM12 colon | NCI-H522 lung | UO-31 renal | SK-OV-3 ovarian | IGROV1 ovarian | K-562 leukemia | A498 renal
47.6 µM: LXFL 529 NSCLC
28.7 µM: NCI-H23 lung
77.5 µM: MALME-3M melanoma
25.7 µM: SNB-75 CNS
70.4 µM: M14 melanoma
48.6 µM: RPMI-8226 leukemia
68.3 µM: SNB-19 CNS
94.9 µM: HOP-92 NSCLC
66 µM: SF-295 CNS
40.9 µM: M19-MEL melanoma
56.7 µM: U251 CNS

Source: PubChem BioAssay (NCI)
